From ChEMBL document CHEMBL1949494, “SAR of α7 nicotinic receptor agonists derived from tilorone: exploration of a novel nicotinic pharmacophore” (Bioorg Med Chem Lett, 2012)

Experiments:
[1] = target: Neuronal acetylcholine receptor subunit alpha-7 (Rattus norvegicus, UniProt Q05941); experiment: Displacement of [3H]methyllylcaconitine from alpha7 nAChR in rat brain; format: tissue-based
[2] = Ratio of drug level in brain to plasma in rat at 3 umol/kg, ip at 30 mins; format: ADME, organism-based; conditions: read-out: BPR
[3] = Plasma concentration in rat at 3 umol/kg, ip at 30 mins; format: ADME, organism-based
[4] = target: T1, Neuronal acetylcholine receptor; alpha3/beta4 (Homo sapiens, UniProt P30926+P32297); experiment: Agonist activity at human recombinant alpha3beta4 nAChR in HEK293 cells by FLIPR assay; format: functional, cell-based
T1 sequence (P30926 whole entry): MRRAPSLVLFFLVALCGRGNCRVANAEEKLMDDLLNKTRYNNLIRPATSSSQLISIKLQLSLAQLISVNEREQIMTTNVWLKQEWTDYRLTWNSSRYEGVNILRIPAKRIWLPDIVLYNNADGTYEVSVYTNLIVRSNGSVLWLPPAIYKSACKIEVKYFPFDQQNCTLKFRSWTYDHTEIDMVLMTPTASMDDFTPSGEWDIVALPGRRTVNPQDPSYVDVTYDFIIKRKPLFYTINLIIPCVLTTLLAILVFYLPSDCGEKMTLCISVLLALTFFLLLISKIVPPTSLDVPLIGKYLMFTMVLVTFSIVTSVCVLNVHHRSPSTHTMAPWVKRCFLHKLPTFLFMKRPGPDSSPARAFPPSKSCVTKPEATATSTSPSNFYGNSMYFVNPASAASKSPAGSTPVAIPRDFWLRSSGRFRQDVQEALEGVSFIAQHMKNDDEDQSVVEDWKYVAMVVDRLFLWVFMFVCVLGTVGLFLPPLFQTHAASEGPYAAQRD
T1 sequence (P32297 whole entry): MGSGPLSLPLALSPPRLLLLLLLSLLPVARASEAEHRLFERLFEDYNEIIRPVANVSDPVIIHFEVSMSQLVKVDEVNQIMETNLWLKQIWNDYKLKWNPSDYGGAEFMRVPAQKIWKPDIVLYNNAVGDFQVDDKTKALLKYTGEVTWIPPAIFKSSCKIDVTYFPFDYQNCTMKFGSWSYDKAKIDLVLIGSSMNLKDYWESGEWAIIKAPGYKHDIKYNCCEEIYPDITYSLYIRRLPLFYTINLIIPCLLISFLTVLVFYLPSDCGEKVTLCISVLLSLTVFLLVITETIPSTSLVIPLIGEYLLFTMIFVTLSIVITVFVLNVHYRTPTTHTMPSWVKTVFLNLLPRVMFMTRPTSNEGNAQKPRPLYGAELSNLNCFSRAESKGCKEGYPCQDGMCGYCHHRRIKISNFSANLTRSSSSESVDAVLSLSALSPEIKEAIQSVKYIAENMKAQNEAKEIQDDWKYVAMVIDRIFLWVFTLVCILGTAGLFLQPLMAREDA

[5] = target: T2, Neuronal acetylcholine receptor; alpha4/beta2 (Homo sapiens, UniProt P17787+P43681); experiment: Agonist activity at human recombinant alpha4beta2 nAChR in HEK293 cells by FLIPR assay; format: functional, cell-based
T2 sequence (P17787 whole entry): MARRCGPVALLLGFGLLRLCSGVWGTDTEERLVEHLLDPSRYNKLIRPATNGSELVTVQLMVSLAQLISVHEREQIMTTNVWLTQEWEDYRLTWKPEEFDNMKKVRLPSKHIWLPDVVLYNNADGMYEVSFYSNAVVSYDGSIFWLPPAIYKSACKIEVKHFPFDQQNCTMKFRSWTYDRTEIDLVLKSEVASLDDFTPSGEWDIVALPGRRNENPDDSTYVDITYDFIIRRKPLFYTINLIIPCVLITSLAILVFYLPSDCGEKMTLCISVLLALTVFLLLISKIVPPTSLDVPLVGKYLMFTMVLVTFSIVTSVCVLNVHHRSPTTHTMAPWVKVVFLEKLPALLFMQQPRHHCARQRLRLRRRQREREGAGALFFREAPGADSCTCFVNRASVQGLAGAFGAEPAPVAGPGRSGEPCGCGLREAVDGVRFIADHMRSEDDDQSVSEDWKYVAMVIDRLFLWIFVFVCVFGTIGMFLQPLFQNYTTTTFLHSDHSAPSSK
T2 sequence (P43681 whole entry): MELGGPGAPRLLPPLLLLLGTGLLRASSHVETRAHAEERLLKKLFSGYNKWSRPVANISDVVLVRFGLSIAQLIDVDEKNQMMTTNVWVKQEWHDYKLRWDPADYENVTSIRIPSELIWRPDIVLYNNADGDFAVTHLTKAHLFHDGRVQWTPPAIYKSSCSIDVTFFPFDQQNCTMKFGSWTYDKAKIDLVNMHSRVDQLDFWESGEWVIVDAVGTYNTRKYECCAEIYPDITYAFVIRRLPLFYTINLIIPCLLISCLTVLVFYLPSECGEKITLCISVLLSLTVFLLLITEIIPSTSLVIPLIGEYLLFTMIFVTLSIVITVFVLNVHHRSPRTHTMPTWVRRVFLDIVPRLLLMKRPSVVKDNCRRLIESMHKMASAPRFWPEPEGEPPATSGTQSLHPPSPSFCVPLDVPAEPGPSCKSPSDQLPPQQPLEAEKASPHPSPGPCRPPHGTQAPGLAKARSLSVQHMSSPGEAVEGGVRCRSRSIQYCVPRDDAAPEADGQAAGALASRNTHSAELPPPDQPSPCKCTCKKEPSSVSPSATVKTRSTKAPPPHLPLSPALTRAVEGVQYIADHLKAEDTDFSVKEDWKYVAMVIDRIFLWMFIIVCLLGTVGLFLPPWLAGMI

[6] = Binding affinity to 5HT3
[7] = target: T3, Neuronal acetylcholine receptor subunit alpha-7 (Homo sapiens, UniProt P36544); experiment: Agonist activity at human recombinant alpha7 nAChR expressed in xenopus oocytes by patch clamp assay relative to acetylcholine; format: functional, cell-based; conditions: Oocyte
T3 sequence (P36544 whole entry): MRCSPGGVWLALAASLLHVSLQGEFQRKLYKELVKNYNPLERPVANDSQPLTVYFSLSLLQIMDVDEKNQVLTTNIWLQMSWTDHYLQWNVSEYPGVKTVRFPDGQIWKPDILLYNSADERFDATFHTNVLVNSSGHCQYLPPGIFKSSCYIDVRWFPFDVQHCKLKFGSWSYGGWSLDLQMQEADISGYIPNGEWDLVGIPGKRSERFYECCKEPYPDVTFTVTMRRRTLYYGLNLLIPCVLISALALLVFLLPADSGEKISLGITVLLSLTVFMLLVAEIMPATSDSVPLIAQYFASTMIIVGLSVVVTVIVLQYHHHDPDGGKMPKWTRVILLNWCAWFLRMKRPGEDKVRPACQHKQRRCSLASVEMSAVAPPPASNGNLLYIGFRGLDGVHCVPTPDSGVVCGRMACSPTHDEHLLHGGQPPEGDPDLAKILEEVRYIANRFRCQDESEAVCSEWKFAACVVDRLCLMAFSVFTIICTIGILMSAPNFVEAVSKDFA

[8] = target: Voltage-gated inwardly rectifying potassium channel KCNH2 (Homo sapiens, UniProt Q12809); experiment: Displacement of [3H]dofetilide from human ERG expressed in HEK293 cells
Voltage-gated inwardly rectifying potassium channel KCNH2, sequence (Q12809 whole entry): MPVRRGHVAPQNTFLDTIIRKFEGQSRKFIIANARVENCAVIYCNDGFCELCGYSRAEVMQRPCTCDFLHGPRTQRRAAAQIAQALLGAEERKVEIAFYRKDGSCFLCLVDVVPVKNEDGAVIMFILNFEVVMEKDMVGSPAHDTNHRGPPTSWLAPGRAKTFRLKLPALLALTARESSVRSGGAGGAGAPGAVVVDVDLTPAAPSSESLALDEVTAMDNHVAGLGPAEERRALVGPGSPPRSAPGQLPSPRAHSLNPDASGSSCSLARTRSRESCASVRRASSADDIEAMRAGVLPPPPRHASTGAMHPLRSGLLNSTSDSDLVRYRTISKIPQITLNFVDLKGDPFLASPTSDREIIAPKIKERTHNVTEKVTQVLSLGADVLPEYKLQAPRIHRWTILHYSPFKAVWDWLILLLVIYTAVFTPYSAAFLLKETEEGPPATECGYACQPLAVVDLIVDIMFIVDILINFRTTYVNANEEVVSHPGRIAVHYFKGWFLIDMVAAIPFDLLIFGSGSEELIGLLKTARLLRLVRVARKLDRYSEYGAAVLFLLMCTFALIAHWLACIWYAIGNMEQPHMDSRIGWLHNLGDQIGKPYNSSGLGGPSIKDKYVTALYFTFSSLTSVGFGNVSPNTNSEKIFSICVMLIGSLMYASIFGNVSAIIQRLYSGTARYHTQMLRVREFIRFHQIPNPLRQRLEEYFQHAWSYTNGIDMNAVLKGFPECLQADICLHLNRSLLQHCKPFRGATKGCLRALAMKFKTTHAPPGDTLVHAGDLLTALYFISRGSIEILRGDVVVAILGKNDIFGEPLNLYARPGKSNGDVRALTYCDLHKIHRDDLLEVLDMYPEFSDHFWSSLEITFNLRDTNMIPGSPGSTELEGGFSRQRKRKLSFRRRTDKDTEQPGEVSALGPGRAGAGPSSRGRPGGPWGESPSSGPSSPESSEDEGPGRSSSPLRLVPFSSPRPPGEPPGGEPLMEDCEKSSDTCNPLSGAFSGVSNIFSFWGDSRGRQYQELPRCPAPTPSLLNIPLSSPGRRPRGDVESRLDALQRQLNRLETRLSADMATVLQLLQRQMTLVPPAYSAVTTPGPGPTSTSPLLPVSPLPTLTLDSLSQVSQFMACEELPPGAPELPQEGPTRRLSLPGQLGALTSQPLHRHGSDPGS

[9] = target: T3, Neuronal acetylcholine receptor subunit alpha-7; experiment: Agonist activity at human recombinant alpha7 nAChR expressed in xenopus oocytes by patch clamp assay; format: functional, cell-based, Oocyte
[10] = target: Neuronal acetylcholine receptor; alpha3/beta2 (Homo sapiens, UniProt P17787+P32297); experiment: Agonist activity at alpha3beta2 nAChR receptor by FLIPR assay; format: functional
Neuronal acetylcholine receptor; alpha3/beta2, sequence (P17787 whole entry): as the sequence (P17787 whole entry) above
Neuronal acetylcholine receptor; alpha3/beta2, sequence (P32297 whole entry): as the sequence (P32297 whole entry) above

[11] = target: T1, Neuronal acetylcholine receptor; alpha3/beta4; experiment: Agonist activity at alpha3beta4 nAChR receptor by FLIPR assay; format: functional
[12] = target: Muscarinic acetylcholine receptor; experiment: Binding affinity to muscarinic receptor in rat brain; format: tissue-based
[13] = target: T2, Neuronal acetylcholine receptor; alpha4/beta2; experiment: Agonist activity at alpha4beta2 nAChR receptor by FLIPR assay; format: functional
[14] = target: Neuronal acetylcholine receptor; alpha4/beta4 (Homo sapiens, UniProt P30926+P43681); experiment: Agonist activity at alpha4beta4 nAChR receptor by FLIPR assay; format: functional
Neuronal acetylcholine receptor; alpha4/beta4, sequence (P30926 whole entry): as the sequence (P30926 whole entry) above
Neuronal acetylcholine receptor; alpha4/beta4, sequence (P43681 whole entry): as the sequence (P43681 whole entry) above

[15] = target: Neuronal acetylcholine receptor subunit alpha-7 (Rattus norvegicus) (UniProt Q05941); experiment: Ratio of tilorone Ki to compound Ki for alpha7 nAChR in rat brain; format: tissue-based
Neuronal acetylcholine receptor subunit alpha-7 (Rattus norvegicus), sequence (Q05941 whole entry): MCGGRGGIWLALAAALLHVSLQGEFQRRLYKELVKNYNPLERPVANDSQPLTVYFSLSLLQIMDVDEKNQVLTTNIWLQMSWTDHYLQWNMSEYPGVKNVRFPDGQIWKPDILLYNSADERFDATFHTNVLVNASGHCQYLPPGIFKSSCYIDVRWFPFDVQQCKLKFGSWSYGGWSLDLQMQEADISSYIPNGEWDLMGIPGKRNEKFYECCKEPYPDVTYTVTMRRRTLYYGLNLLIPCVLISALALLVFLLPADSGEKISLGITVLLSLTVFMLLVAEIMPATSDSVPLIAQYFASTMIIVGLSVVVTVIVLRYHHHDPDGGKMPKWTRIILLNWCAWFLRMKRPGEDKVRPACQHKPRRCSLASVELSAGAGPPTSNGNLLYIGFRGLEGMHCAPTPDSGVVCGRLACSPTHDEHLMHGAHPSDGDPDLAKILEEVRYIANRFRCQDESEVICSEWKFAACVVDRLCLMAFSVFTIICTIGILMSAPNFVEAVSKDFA

Neuronal acetylcholine receptor subunit alpha-7 (Rattus norvegicus, UniProt Q05941), sequence (Q05941 whole entry): as above

Compound	Ki [1] [µM]	further results
CN1C[C@H]2CN(c3ccc4c(c3)S(=O)(=O)c3ccccc3-4)C[C@H]21	0.023	
O=S1(=O)c2ccccc2-c2ccc(O[C@H]3CN4CCC3CC4)cc21	0.0039	
CCN(CC)CCOc1ccc2c(c1)C(=O)c1ccccc1-2	1.8	
CCN(CC)CCOc1cccc(C(=O)c2cccc(OCCN(CC)CC)c2)c1	68	
O=C1c2cc(O[C@H]3CN4CCC3CC4)ccc2-c2ccc(O[C@H]3CN4CCC3CC4)cc21	0.00058	
CCN(CC)CCOc1ccc2oc3ccc(OCCN(CC)CC)cc3c(=O)c2c1	0.44	
CN1CC2CN(c3ccc4c(c3)C(=O)c3ccccc3-4)CC2C1 (configuration not stated)	0.063	
CN1CCC[C@H]1COc1ccc2c(c1)C(=O)c1cc(OC[C@@H]3CCCN3C)ccc1-2	0.012	
O=S1(=O)c2ccccc2-c2ccc(N3CCN4CCC3CC4)cc21	2.3e-05	Kp at 0.5 h [2]: 12; concentration at 0.5 h [3]: 8.4 ng/mL; EC50 [4]: > 100 µM; EC50 [5]: > 100 µM; Ki [6]: 0.66 µM; Emax [7]: < 5%; Ki [8]: 0.47 µM; EC50 [9]: > 100 µM
CCN(CC)CCOc1ccc2c(c1)C(=O)c1cc(OCCOC)ccc1-2	2	
CN1CCN(c2ccc3c(c2)C(=O)c2cc(N4CCN(C)CC4)ccc2-3)CC1	0.14	
CCN(CC)CCOc1ccc2c3ccc(OCCN(CC)CC)cc3[s+]([O-])c2c1	0.69	
CCN(CC)CCOc1ccc2c(c1)C(=O)c1cc(OCCN(CC)CC)ccc1-2 [TILORONE]	0.056	EC50 [10]: > 10 µM; EC50 [11]: > 10 µM; Ki [12]: 0.42 µM; EC50 [13]: > 10 µM; EC50 [14]: > 10 µM; Emax [7]: 67%; EC50 [9]: 2.5 µM
O=C1c2ccccc2-c2ccc(O[C@H]3CN4CCC3CC4)cc21	0.0032	
O=S1(=O)c2ccccc2-c2ccc(O[C@@H]3CN4CCC3CC4)cc21	0.028	
CN1CCC[C@@H]1COc1ccc2c(c1)C(=O)c1cc(OC[C@H]3CCCN3C)ccc1-2	0.0076	
O=C1c2cc(N3C[C@@H]4CN[C@@H]4C3)ccc2-c2ccc(N3C[C@@H]4CN[C@@H]4C3)cc21	0.018	
CN1CC2CN(c3ccc4oc5ccccc5c(=O)c4c3)CC2C1 (configuration not stated)	0.004	Kp at 0.5 h [2]: 48; concentration at 0.5 h [3]: 12.4 ng/mL; EC50 [4]: > 100 µM; EC50 [5]: > 100 µM; Ki [6]: 0.1 µM; Emax [7]: 61%; EC50 [9]: 2.2 µM
CN1C[C@H]2CN(c3ccc4c(c3)C(=O)c3ccccc3-4)C[C@H]21	0.0059	Ratio Ki [15]: 10
CN(C)CCOc1ccc2c(c1)C(=O)c1cc(OCCN(C)C)ccc1-2	0.05	
CN1CCC(Oc2ccc3c(c2)C(=O)c2cc(OC4CCN(C)CC4)ccc2-3)CC1	0.037	
CN1C[C@H]2CN(c3ccc4c(c3)C(=O)c3cc(N5C[C@@H]6CN(C)[C@@H]6C5)ccc3-4)C[C@H]21	9.2e-05	
O=C1c2cc(O[C@@H]3CCNC3)ccc2-c2ccc(O[C@@H]3CCNC3)cc21	0.071	
CCN(CC)CCOc1ccc2c(c1)S(=O)(=O)c1cc(OCCN(CC)CC)ccc1-2	0.23	
CCN(CC)CCCCOc1ccc2c(c1)C(=O)c1cc(OCCCCN(CC)CC)ccc1-2	2.3	
CN1CC[C@@H]1COc1ccc2c(c1)C(=O)c1cc(OC[C@H]3CCN3C)ccc1-2	0.0043	
CCN(CC)CCCc1ccc2c(c1)C(=O)c1cc(CCCN(CC)CC)ccc1-2	2.9	

Compound	Ki [1] [µM]	further results
CCNCCOc1ccc2c(c1)C(=O)c1cc(OCCNCC)ccc1-2	0.95	
CCN(CC)CCOc1ccc2ccc(OCCN(CC)CC)cc2c1	> 1000	
O=C1c2ccccc2-c2ccc(N3CCN4CCC3CC4)cc21	0.00028	
O=c1c2ccccc2oc2ccc(O[C@H]3CN4CCC3CC4)cc12	0.0087	
CN1CC2CN(c3ccc4c(c3)C(=O)c3cc(N)ccc3-4)CC2C1 (configuration not stated)	0.00065	
CN1[C@@H]2CC[C@H]1C[C@H](Oc1ccc3c(c1)C(=O)c1cc(O[C@@H]4C[C@H]5CC[C@@H](C4)N5C)ccc1-3)C2	0.09	
NCCOc1ccc2c(c1)C(=O)c1cc(OCCN)ccc1-2	15	
CCN(CC)CCOc1ccc(-c2ccc(OCCN(CC)CC)cc2)cc1	> 1000	
O=C1c2cc(O[C@@H]3CN4CCC3CC4)ccc2-c2ccc(O[C@@H]3CN4CCC3CC4)cc21	0.0016	
O=c1c2ccccc2oc2ccc(O[C@@H]3CN4CCC3CC4)cc12	0.0088	
CCN(CC)CC#Cc1ccc2c(c1)C(=O)c1cc(C#CCN(CC)CC)ccc1-2	0.087	
c1ccc2c(c1)Cc1cc(O[C@H]3CN4CCC3CC4)ccc1-2	0.11	
O=C1c2cc(OCCN3CCCCC3)ccc2-c2ccc(OCCN3CCCCC3)cc21	4.2	
CC(C)N(CCOc1ccc2c(c1)C(=O)c1cc(OCCN(C(C)C)C(C)C)ccc1-2)C(C)C	1.3	
c1ccc2c(c1)Cc1cc(O[C@@H]3CN4CCC3CC4)ccc1-2	0.34	
CN1CCCN(c2ccc3c(c2)C(=O)c2cc(N4CCCN(C)CC4)ccc2-3)CC1	0.0065	Ratio Ki [15]: 10
CCN(CC)CCOc1ccc2c(c1)Cc1cc(OCCN(CC)CC)ccc1-2	0.77	
CCN(CC)CCCOc1ccc2c(c1)C(=O)c1cc(OCCCN(CC)CC)ccc1-2	0.83	
CC[N+](C)(CC)CCOc1ccc2c(c1)C(=O)c1cc(OCC[N+](C)(CC)CC)ccc1-2	0.015	
O=C1c2cc(OCCN3CCCC3)ccc2-c2ccc(OCCN3CCCC3)cc21	0.053	
O=C1c2ccccc2-c2ccc(O[C@@H]3CN4CCC3CC4)cc21	0.012	
CCN(CC)CCOc1ccc2c(c1)C(O)c1cc(OCCN(CC)CC)ccc1-2	0.27	
CCN(CC)CCOc1ccc2c(c1)sc1cc(OCCN(CC)CC)ccc12	1.6	
CN1CC[C@@H](Oc2ccc3c(c2)C(=O)c2cc(O[C@@H]4CCN(C)C4)ccc2-3)C1	0.012	
CN1CC2CN(c3ccc4c(c3)C(=O)c3cc(N5CC6CN(C)CC6C5)ccc3-4)CC2C1 (configuration not stated)	0.0012	
O=C1c2cc(N3CC4CNCC4C3)ccc2-c2ccc(N3CC4CNCC4C3)cc21 (configuration not stated)	0.00031	
